Measured values from ChEMBL document CHEMBL1136434, “5-aryl-pyrazolo[3,4-b]pyridazines: potent inhibitors of glycogen synthase kinase-3 (GSK-3)” (Bioorg Med Chem Lett, 2003).

Each compound was assayed against Cyclin-dependent kinase 2 (Homo sapiens) (UniProt P24941).

Compound	cKi [nM]
CCN1CCC(CC(=O)Nc2n[nH]c3nnc(-c4cccc(F)c4F)cc23)CC1	540
O=C(Nc1n[nH]c2nnc(-c3cccnc3)cc12)C1CC1	5
CN(C)CCCC(=O)Nc1n[nH]c2nnc(-c3ccccc3)cc12	1700

The next lines start with the values.

cKi [nM]	Compound
450	CCN1CCC(C(=O)Nc2n[nH]c3nnc(-c4cccc(F)c4F)cc23)CC1
5	O=C(Nc1n[nH]c2nnc(-c3cccc(F)c3F)cc12)C1CCCC1
